Data on 22 compounds can be found in patent US5670498A, “8-substituted styryl xanthine derivatives” (Kyowa Hakko Kogyo Co., Ltd., priority 1992, dated 1997).

What is called Ki is the equilibrium dissociation constant of an inhibitor or competing ligand from its target. Broadly, the inhibition is the change of the read-out against control, counted positive when it falls.

The structures appear in SMILES notation. Read-outs that look alike come from different tables or passages of the source.

Data set [1] is described as follows: Acute Toxicity Test (minimum lethal dose, po). Type of data set: in vivo. Conditions: mice, 7 days after administration. How it is done:
Test compounds were orally administered to groups of dd-strain male mice weighing 20±1 g, each group consisting of three mice (po; 300 mg/kg). Seven days after the administration, minimum lethal dose (MLD) of each compound was determined by observing the mortality.
Therefore, these compounds can be safely used in a wide range of doses.

Data set [2] addresses T1, adenosine A2 receptor (Rattus norvegicus, UniProt P30543).
T1 construct: from tissue; host or cells: rat corpus striatum (washed membrane suspension)
In words: Adenosine A2 Receptor Binding Test (3H-NECA + CPA, rat corpus striatum). To be noted: for inhibition at 1 µM: 10^-6 M. As to the method: Corpus striatum of a rat was suspended in ice-cooled 50 mM Tris hydroxymethyl aminomethane hydrochloride (Tris HCl) buffer (pH 7.7) by using Polytron homogenizer (manufactured by […] Co.). The suspension was centrifuged (50,000×g, 10 minutes), and the precipitate was suspended again in the same amount of 50 mM Tris HCl buffer. The suspension was centrifuged under the same conditions, and the final precipitate was suspended once again in 50 mM Tris HCl buffer containing 10 mM magnesium chloride and 0.02 unit/mg tissue of adenosine deaminase (manufactured by Sigma Co.) to give a tissue concentration of 5 mg (wet weight)/ml. […] The resulting mixture was allowed to stand at 25° C. for 120 minutes and then rapidly filtered by suction through a glass fiber filter (GF/C, manufactured by Whatman Co.). […] The radioactivity on the filter was determined with a liquid scintillation counter (manufactured by Packard instrument Co.). […] The Ki values shown in the table were calculated by the following equation: [formula]

Data set [3] deals with Haloperidol-Induced Catalepsy. In words: Effect on Haloperidol-Induced Catalepsy. Conditions: 10 mg/kg po; for Total Score (catalepsy): sum of five mice, 25 points at the full, control 25; for inhibition in vivo at 10 mg/kg: Mus musculus, decrease in total score based on control group, read-out: Remission Rate. Type of data set: in vivo, male ddY mice. As to the method: Effect on Haloperidol-Induced Catalepsy Parkinson's disease is a clinical syndrome caused by degeneration of nigrostriatal dopaminergic neurons. […] The experiment was performed by using several groups of 5-weeks-old male ddY mice (weighing 22 to 24 g, Japan SLC), each group consisting of 5 mice. Haloperidol (Janssen Pharmaceutica) suspended in 0.3% CMC was intraperitoneally administered to each mouse at a dose of 1.0 mg/kg. Test compounds were suspended in injectable distilled water (Otsuka Pharmaceutical Co., Ltd.) containing Tween 80 [polyoxyethylene (20) sorbitan monooleate]. L-DOPA (Kyowa Hakko Kogyo Co., Ltd.) and benserazide hydrochloride (Kyowa Hakko Kogyo Co., Ltd.) were suspended in 0.3% CMC. One hour after the haloperidol administration, the test compound suspensions and the control suspension [injectable distilled water (Otsuka Pharmaceutical Co., Ltd.) containing Tween 80] containing no test compound were orally administered to separate groups of the mice (0.1 ml per 10 g of body weight). One hour after the administration of the test compound, the forelimbs of each mouse and subsequently the hindlimbs of the same mouse were placed on a 4.5 cm-high, 1.0 cm-wide bar and catalepsy was estimated. […] The catalepsy score and the standard of judgment are shown below. […] The effect of the compounds was evaluated by the total of the catalepsy scores of five mice in each group (25 points at the full).

Data set [4] concerns the target T1, adenosine A2 receptor. In words: Adenosine A2 Receptor Binding Test (3H-CGS 21680, rat corpus striatum). Conditions: [3H]CGS 21680, read-out: A2 Receptor Inhibition Rate; for inhibition at 1 µM: 10^-6 M; for inhibition at 0.1 µM: 10^-7 M.
Protocol: Adenosine Receptor Antagonistic Activity (Adenosine A2 Receptor Binding Test)
Corpus striatum of a rat was suspended in ice-cooled 50 mM Tris hydroxymethyl aminomethane hydrochloride (Tris HCl) buffer (pH 7.7) by using Polytron homogenizer (manufactured by Kinematicas Co.). The suspension was centrifuged (50,000×g, 10 minutes), and the precipitate was suspended again in the same amount of 50 mM Tris HCl buffer. The suspension was centrifuged under the same conditions, and the final precipitate was suspended once again in 50 mM Tris HCl buffer containing 10 mM magnesium chloride and 0.02 unit/mg tissue of adenosine deaminase (manufactured by Sigma Co.) to give a tissue concentration of 5 mg (wet weight)/ml.
To 1 ml of the tissue suspension thus prepared were added 50 μl of a mixture of N-ethylcarboxamidoadenosine labeled with tritium (^3 H-NECA: 26 Ci/mmol, manufactured by Amersham Co.) (final concentration: 3.8 nM) and cyclopentyladenosine (CPA, manufactured by Sigma Co.) (final concentration: 50 nM), and 50 μl of a test compound. The resulting mixture was allowed to stand at 25° C. for 120 minutes and then rapidly filtered by suction through a glass fiber filter (GF/C, manufactured by Whatman Co.). The filter was immediately washed three times with 5 ml each of ice-cooled 50 mM Tris HCl buffer, and transferred to a vial, and a scintillator (EX-H by Wako Pure Chemical Industries, Ltd.) was added thereto. The radioactivity on the filter was determined with a liquid scintillation counter (manufactured by Packard instrument Co.).
The similar procedure as above was repeated to determine the radioactivity bound to the A2 receptors using 50 μl of CGS 21680 labeled with tritium {^3 H-2-[p-(2-carboxyethyl)phenethylamino]-5'-(N-ethylcarboxamide)adenosine: 40 Ci/mmol, manufactured by New England Nuclear Co. [J. Pharmacol. Exp. Ther., 251, 888 (1989)]} (final concentration: 4.0 nM) in place of 50 μl of the mixture of N-ethylcarboxamidoadenosine labeled with tritium (^3 H-NECA: 26 Ci/mmol, manufactured by Amersham Co.) (final concentration: 3.8 nM) and cyclopentyladenosine (CPA, manufactured by Sigma Co.) (final concentration: 50 nM).
The inhibition rate of the test compound against the binding of A2 receptors (^3 H-CGS 21680 binding) was calculated by the following equation: [formula]
Setting [5] is: read-out: A2 Receptor Inhibition Rate.
[6] abbreviates: 10^-4 M, 3H-NECA, read-out: A2 Receptor Inhibition Rate.
Where [7] appears, read: 10^-5 M, 3H-NECA, read-out: A2 Receptor Inhibition Rate.
Where [8] appears, read: 3H-NECA, read-out: A2 Receptor Inhibition Rate.

T1 sequence (P30543 whole entry): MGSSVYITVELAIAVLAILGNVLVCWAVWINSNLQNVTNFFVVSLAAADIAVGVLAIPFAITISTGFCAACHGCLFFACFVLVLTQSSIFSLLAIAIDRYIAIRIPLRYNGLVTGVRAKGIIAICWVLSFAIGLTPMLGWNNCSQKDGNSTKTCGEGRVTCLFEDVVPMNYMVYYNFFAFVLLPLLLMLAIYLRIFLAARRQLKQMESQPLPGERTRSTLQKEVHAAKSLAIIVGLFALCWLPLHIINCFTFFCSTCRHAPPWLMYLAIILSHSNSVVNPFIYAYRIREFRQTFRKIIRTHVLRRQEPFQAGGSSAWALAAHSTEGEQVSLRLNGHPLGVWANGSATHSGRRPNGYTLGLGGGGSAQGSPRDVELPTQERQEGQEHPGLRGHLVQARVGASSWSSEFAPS

Take `CCCn1c(=O)c2c(nc(/C=C/c3cc(OC)c(OC)cc3S(=O)(=O)O)n2C)n(CCC)c1=O` [Compound 1, (E)-4,5-Dimethoxy-β-(7-methyl-1,3-dipropylxanthin-8-yl)styrene-2-sulfonic acid]: the “MLD (minimum lethal dose)” value in data set [1] is listed as > 300 mg/kg. The Ki at adenosine A2 receptor [2] (3H-NECA) worked out at 670 nM. Further, at adenosine A2 receptor [2] (setting [5]), the inhibition at 10 µM is 80% and the inhibition at 100 µM came out at 95%.

With `CCCn1c(=O)c2c(nc(/C=C/c3cc(OC)c(OC)cc3S(=O)(=O)N(CC)CC)n2C)n(CCC)c1=O` [Compound 2, (E)-N,N-Diethyl-4,5-dimethoxy-β-(7-methyl-1,3-dipropylxanthin-8-yl)styrene-2-sulfonamide], the inhibition at 100 µM on adenosine A2 receptor [2] (setting [6]) was found to be 112%. Also, the inhibition at 10 µM on adenosine A2 receptor [2] (setting [7]) came to 97%.

For the compound `CCCN(CCC)S(=O)(=O)c1cc(OC)c(OC)cc1/C=C/c1nc2c(c(=O)n(CCC)c(=O)n2CCC)n1C` [Compound 3, (E)-N,N-Dipropyl-4,5-dimethoxy-β-(7-methyl-1,3-dipropylxanthin-8-yl)styrene-2-sulfonamide], the inhibition at 100 µM on adenosine A2 receptor [2] (setting [6]) was found to be 91%. Besides, at adenosine A2 receptor [2] (setting [7]), the inhibition at 10 µM worked out at 92%. Moreover, in data set [3], the “Total Score (catalepsy)” value amounted to 20 and the inhibition in vivo at 10 mg/kg was 20%.

Consider `CCCn1c(=O)c2c(nc(/C=C/c3cc(OC)c(OC)cc3S(=O)(=O)N3CCCCC3)n2C)n(CCC)c1=O` [Compound 4, (E)-4,5-Dimethoxy-β-(7-methyl-1,3-dipropylxanthin-8-yl)-2-piperidinosulfonylstyrene], for which the inhibition at 100 µM on adenosine A2 receptor [2] (setting [6]) was determined as 60%. In addition, the inhibition at 10 µM at adenosine A2 receptor [2] (setting [7]) was 74%. In data set [3], the “Total Score (catalepsy)” value is listed as 11 and the inhibition in vivo at 10 mg/kg worked out at 56%.

Consider `CCCn1c(=O)c2c(nc(/C=C/c3cc(OC)c(OC)cc3S(=O)(=O)N(C)CCN(C)C)n2C)n(CCC)c1=O` [Compound 6, (E)-N-[2-(Dimethylamino)ethyl]-N-methyl-4,5-dimethoxy-β-(7-methyl-1,3-dipropylxanthin-8-yl)styrene-2-sulfonamide], for which, in data set [3], the “Total Score (catalepsy)” value is 19 and the inhibition in vivo at 10 mg/kg turned out to be 24%.

As for `CCCn1c(=O)c2c(nc(/C=C/c3ccc(C(=O)OC)cc3)n2C)n(CCC)c1=O` [Compound 7, (E)-β-(7-Methyl-1,3-dipropylxanthin-8-yl)styrene-4-carboxylic acid methyl ester], the inhibition at 100 µM at adenosine A2 receptor [2] (setting [6]) turned out to be 92%. Also, the inhibition at 10 µM on adenosine A2 receptor [2] (setting [7]) came out at 77%. For the same compound, in data set [3], the “Total Score (catalepsy)” value is 11 and the inhibition in vivo at 10 mg/kg amounted to 56%.

As to `CCCn1c(=O)c2c(nc(/C=C\c3ccc(C(=O)OC)cc3)n2C)n(CCC)c1=O` [Compound 8, (Z)-β-(7-methyl-1,3-dipropylxanthin-8-yl)styrene-4-carboxylic acid methyl ester], the “MLD (minimum lethal dose)” value in data set [1] was > 300 mg/kg. The inhibition at 100 µM at adenosine A2 receptor [2] (setting [6]) stood at 101%. In addition, the inhibition at 10 µM on adenosine A2 receptor [2] (setting [7]) worked out at 92%.

Take `CCCn1c(=O)c2c(nc(/C=C/c3cc(OC)c(OC)cc3S(=O)(=O)Nc3ccccc3)n2C)n(CCC)c1=O` [Compound 10, (E)-N-Phenyl-4,5-dimethoxy-β-(7-methyl-1,3-dipropylxanthin-8-yl)styrene-2-sulfonamide]: in data set [3], the “Total Score (catalepsy)” value was 17 and the inhibition in vivo at 10 mg/kg worked out at 32%.

In the case of `CCCn1c(=O)c2c(nc(/C=C/c3cc(OC)c(OC)c(OC)c3S(=O)(=O)O)n2C)n(CCC)c1=O` [Compound 11, (E)-β-(7-Methyl-1,3-dipropylxanthin-8-yl)-3,4,5-trimethoxystyrene-2-sulfonic acid], the inhibition at 100 µM on adenosine A2 receptor [2] (setting [6]) is 93%. For the same compound, the inhibition at 10 µM at adenosine A2 receptor [2] (setting [7]) came to 93%. Moreover, in data set [3], the “Total Score (catalepsy)” value is 19 and the inhibition in vivo at 10 mg/kg is 24%.

In the case of `CCCn1c(=O)c2c(nc(/C=C/c3cc(OC)c(OC)c(OC)c3S(N)(=O)=O)n2C)n(CCC)c1=O` [Compound 12, (E)-β-(7-Methyl-1,3-dipropylxanthin-8-yl)-3,4,5-trimethoxystyrene-2-sulfonamide], the inhibition at 100 µM at adenosine A2 receptor [2] (setting [6]) was 76%. In addition, the inhibition at 10 µM on adenosine A2 receptor [2] (setting [7]) was found to be 68%. In addition, in data set [3], the “Total Score (catalepsy)” value is 15 and the inhibition in vivo at 10 mg/kg was 40%.

Take `CCCn1c(=O)c2c(nc(/C=C/c3cc(OC)c(OC)c(OC)c3S(=O)(=O)N(C)CCN(C)C)n2C)n(CCC)c1=O` [Compound 13, (E)-N-[2-(Dimethylamino)ethyl]-N-methyl-β-(7-methyl-1,3-dipropylxanthin-8-yl)-3,4,5-trimethoxystyrene-2-sulfonamide]: the inhibition at 100 µM at adenosine A2 receptor [2] (setting [6]) is 89%. The inhibition at 10 µM on adenosine A2 receptor [2] (setting [7]) came out at 69%.

For `CCCn1c(=O)c2c(nc(/C=C/c3cc(C)c(C)cc3S(=O)(=O)O)n2C)n(CCC)c1=O` [Compound 15, (E) -4,5-Dimethyl-β-(7-methyl-1,3-dipropylxanthin-8-yl)styrene-2-sulfonicacid], the “MLD (minimum lethal dose)” value in data set [1] was > 300 mg/kg.

Consider `CCCn1c(=O)c2c(nc(/C=C\c3ccc(C(=O)O)cc3)n2C)n(CCC)c1=O` [Compound 18, (Z)-β-(7-Methyl-1,3-dipropylxanthin-8-yl)styrene-4-carboxylic acid], for which the “MLD (minimum lethal dose)” value in data set [1] is on record as > 300 mg/kg. Further, the inhibition at 1 µM at adenosine A2 receptor [2] (setting [8]) worked out at 72%.

As for `CCCn1c(=O)c2c(nc(/C=C/c3ccc(C(=O)O)cc3)n2C)n(CCC)c1=O` [Compound 19, (E)-β-(7-Methyl-1,3-dipropylxanthin-8-yl)styrene-4-carboxylic acid], the inhibition at 1 µM at adenosine A2 receptor [2] (setting [8]) was 94%. Further, on adenosine A2 receptor [2] (10^-7 M, 3H-NECA, read-out: A2 Receptor Inhibition Rate), the inhibition at 0.1 µM was found to be 68%.

As for `CCn1c(=O)c2c(nc(/C=C/c3ccc(C(=O)OC)cc3OC)n2C)n(CC)c1=O` [Compound 20, (E)-β-(1,3-Diethyl-7-methylxanthin-8-yl) -2-methoxystyrene-4-carboxylic acid methyl ester], on adenosine A2 receptor [4], the inhibition at 1 µM worked out at 88% and the inhibition at 0.1 µM came to 69%.

With `CCCn1c(=O)c2c(nc(/C=C/c3ccc(C(=O)OC)cc3OC)n2C)n(CCC)c1=O` [Compound 21, (E)-2-Methoxy-β-(7-methyl-1,3-dipropylxanthin-8-yl)styrene-4-carboxylic acid methyl ester], on adenosine A2 receptor [4], the inhibition at 1 µM stood at 94% and the inhibition at 0.1 µM worked out at 80%.

On to `CCn1c(=O)c2c(nc(/C=C/c3ccc(C(=O)O)cc3OC)n2C)n(CC)c1=O` [Compound 22, (E)-β-(1,3-Diethyl-7-methylxanthin-8-yl)-2-methoxystyrene-4-carboxylicacid], for which, on adenosine A2 receptor [4], the inhibition at 1 µM was found to be 92% and the inhibition at 0.1 µM stood at 60%.

Regarding `CCCn1c(=O)c2c(nc(/C=C/c3ccc(C(=O)O)cc3OC)n2C)n(CCC)c1=O` [Compound 23, (E)-2-Methoxy-β-(7-methyl-1,3-dipropylxanthin-8-yl)styrene-4-carboxylic acid], on adenosine A2 receptor [4], the inhibition at 1 µM is 95% and the inhibition at 0.1 µM was found to be 70%.

For the compound `CCCn1c(=O)c2c(nc(/C=C/c3ccc(OC)c(C(C)=O)c3)n2C)n(CCC)c1=O` [Compound 26, (E)-8-(3-Acetyl-4-methoxystyryl)-7-methyl-1,3-dipropylxanthine], on adenosine A2 receptor [4], the inhibition at 1 µM was found to be 93% and the inhibition at 0.1 µM came out at 66%.

Consider `CCn1c(=O)c2c(nc(/C=C/c3ccc(F)c(C(C)=O)c3)n2C)n(CC)c1=O` [Compound 28, (E)-8-(3-Acetyl-4-fluorostyryl)-1,3-diethyl-7-methylxanthine], for which, at adenosine A2 receptor [4], the inhibition at 1 µM was 86% and the inhibition at 0.1 µM amounted to 76%.

Consider `CCn1c(=O)c2c(nc(/C=C/c3ccc(C(C)=O)c(OC)c3)n2C)n(CC)c1=O` [Compound 30, (E)-8-(4-Acetyl-3-methoxystyryl)-1,3-diethyl-7-methylxanthine], for which, on adenosine A2 receptor [4], the inhibition at 1 µM was 95% and the inhibition at 0.1 µM was 83%.

Consider `CCCn1c(=O)c2c(nc(/C=C/c3ccc(S(=O)(=O)O)cc3)n2C)n(CCC)c1=O` [Compound 31, (E)-β-(7-Methyl-1,3-dipropylxanthin-8-yl)styrene-4-sulfonic acid], for which, on adenosine A2 receptor [4], the inhibition at 1 µM was found to be 89% and the inhibition at 0.1 µM was determined as 56%.
